Test results from patent US5079260A, “Method for treating inflammation and compounds and compositions suitable for use therein” (Nova Pharmaceutical Corporation, priority 1990, dated 1992).

What was measured:
[1] = test system: Ear Edema Caused by Arachidonic Acid; test: Inhibition of Ear Edema Caused by Arachidonic Acid (I), Table 2; type: in vivo, CF-1 Mice; conditions: i.p., 100 mg/kg; ear thickness at sixty minutes
Description: (§1) Such inflammatory agents typically include tetradecanoylphorbolacetate, arachidonic acid, xylene, capsaicin, oxazolone, carrageenan and the like. The reverse passive Arthus test offers another measure of the compound's utility in preventing an inflammatory response (Chang et al, Eur. J. Pharm. 69:155-164 (1981)). Test compounds are typically administered intraperitoneally or topically. For intraperitoneal administration, the test compound can be given in dimethyl sulfoxide or in 0.5% methylcellulose 30 minutes prior to administration of the irritant. For topical administration, the test compound can be dissolved in, for example, acetone, ethanol or dimethyl sulfoxide and applied about 15 minutes prior to application of the irritant. Results can be expressed as the percent decrease in swelling in the compound-treated animals as compared to control animals that receive only the irritant.
Inhibition of Ear Edema Caused by Arachidonic Acid (I)
CF-1 Mice, 25-30 g body weight, six animals per group, were used. Test compounds (compounds of Formula I where X is oxygen, R3, R4, A and B are hydrogen and Q is as indicated in Table 2) were administered intraperitoneally (100 mg/kg) as follows. For intraperitoneal administration, test compound was dissolved in DMSO or 0.5% methylcellulose and 100 μl was injected 30 minutes prior to i.p. administration of 100 mg/kg of arachidonic acid. A solution of the irritant, arachidonic acid, 100 mg/ml in ethanol, was added to the surface of the ear, 5 μl added to the upper surface and 5 μl to the lower surface. After sixty minutes, the thickness of the ear was measured to 0.01 mm by a micrometer with loose drag positioned at the lateral-most edge of the mid-point of the pinna. Data were calculated as the percent inhibition by the test compound of increased ear thickness compared to control animals receiving only the irritant.

[2] = test system: Ear Edema Caused by Xylene; test: Inhibition of Ear Edema Caused by Xylene (I), Table 3; type: in vivo, CF-1 Mice; conditions: 2 h
Description: as §1
Inhibition of Ear Edema Caused by Xylene (I)
CF-1 Mice, 25-30 g body weight, six animals per group, were used. Test compounds (compounds of Formula I where X is oxygen, R3, R4, A and B are hydrogen and Q is as indicated in Table 3) were administered intraperitoneally (100 mg/kg) or topically as follows. For intraperitoneal administration, the test compound was dissolved in DMSO or 0.5% methylcellulose and 100 μl was injected 30 minutes prior to irritant. For topical administration, test compound was dissolved in either acetone, ethanol or dimethyl sulfoxide and 5 μl (10 μg) applied to the upper surface (1 cm^2) of the ear and an additional 5 μl (10 μg) applied to the lower surface (1 cm^2) of the ear fifteen minutes prior to application of the irritant. The irritant, xylene, was added to the surface of the ear, 20 μl added to the upper surface and 20 μl to the lower surface. After two hours, the thickness of the ear was measured to 0.01 mm by a micrometer with loose drag positioned at the lateral-most edge of the mid-point of the pinna. Data were calculated as the inhibition by the test compound of increased ear thickness compared to that of control animals receiving only the irritant.

[3] = test system: Ear Edema Caused by Oxazolone; test: Inhibition of Ear Edema Caused by Oxazolone (I), Table 5; type: in vivo, CF-1 Mice; conditions: i.p., 100 mg/kg, 30 min before irritant; sensitized mice; 24 h
Description: as §1
Inhibition of Ear Edema Caused by Oxazolone (I)
CF-1 Mice, 25-30 g body weight, six animals per group, were used. The mice were sensitized to the irritant two weeks prior to the test by dribbling 100 μl of a 3% solution of oxazolone in acetone onto the abdominal skin of the animal. Test compounds (compounds of Formula I where X is oxygen, R3, R4, A and B are hydrogen and Q is as indicated in Table 5) were administered intraperitoneally as follows. The test compound was dissolved in DMSO or 0.5% methylcellulose and 100 μl (100 mg/kg) was injected 30 minutes prior to irritant. The irritant, 3% oxazolone in acetone, was added to the surface of the ear, 5 μl added to the upper surface and 5 μl to the lower surface. After twenty four hours, the thickness of the ear was measured to 0.01 mm by a micrometer with loose drag positioned at the lateral-most edge of the mid-point of the pinna. Data were calculated as the inhibition by the test compound of increased ear thickness compared to control animals receiving only the irritant.

[4] = test system: Ear Edema Caused by Capsaicin; test: Inhibition of Ear Edema Caused by Capsaicin, Table 4; type: in vivo, CF-1 Mice
Description: as §1
Inhibition of Ear Edema Caused by Capsaicin
CF-1 Mice, 25-30 g body weight, six animals per group, were used. […] After thirty minutes, the thickness of the ear was measured to 0.01 mm by a micrometer with loose drag positioned at the lateral-most edge of the mid-point of the pinna. Data were calculated as the inhibition by the test compound of increased ear thickness compared to control animals receiving only the irritant.

[5] = test system: Ear Edema Caused by Tetradecanoylphorbolacetate; test: Inhibition of Ear Edema Caused by Tetradecanoylphorbolacetate (I), Table 1; type: in vivo, CF-1 Mice
Description: as §1
Inhibition of Ear Edema Caused by Tetradecanoylphorbolacetate (I)
CF-1 Mice, 25-30 g body weight, six animals per group, were used. Test compounds (compounds of Formula I where X is oxygen, R3, R4, A and B are hydrogen and Q is as indicated in Table 1) were administered intraperitoneally (100 mg/kg) or topically as follows. For intraperitoneal administration, the test compound was dissolved in dimethyl sulfoxide or 0.5% methylcellulose and 100 μl was injected 30 minutes prior to irritant (100 mg/kg, i.p.). For topical administration, the test compound was dissolved in either acetone, ethanol or dimethyl sulfoxide and 5 μl (100 μg) applied to the upper surface (1 cm^2) of the ear and an additional 5 μl (100 μg) applied to the lower surface (1 cm^2) of the ear fifteen minutes prior to application of the irritant. A solution of the irritant, tetradecanoylphorbolacetate, 200 μg/ml, was added to the surface of the ear, 5 μl added to the upper surface and 5 μl to the lower surface. After three hours, the thickness of the ear was measured to 0.01 mm by a micrometer with loose drag positioned at the lateral-most edge of the mid-point of the pinna. Data were calculated as the inhibition by the test compound of increased ear thickness compared to control animals receiving only the irritant.

[6] = test system: Ear Edema Caused by Arachidonic Acid; test: Inhibition of Ear Edema Caused by Arachidonic Acid (I), Table 2; type: in vivo, CF-1 Mice; conditions: dose not given in Example 4, sixty minutes
[7] = test system: Reverse Passive Artus Reaction; test: Reverse Passive Artus Reaction (I), Table 6; type: in vivo, Male CD rats; conditions: inhibition of blueing; i.p., 100 mg/kg, one hour before antigen
Description: as §1
Reverse Passive Artus Reaction (I)
Male CD rats weighing between 200 and 250 g were used. Test compounds (compounds of Formula I where X is oxygen, R3, R4, A and B are hydrogen and Q is as indicated in Table 6) were dissolved in dimethyl sulfoxide and 200 μl of this solution (100 mg/kg) were injected intraperitoneally one hour before administration of the antigen. The animals were anesthetized inhalationally with isoflurane and then were injected through the penile vein with 1 ml of a solution of 2.5 mg of Evan's blue dye and 5.0 mg of human serum albumin in 1 ml of saline. This treatment was followed immediately by intracutaneous injections of 0.03 ml of anti-human albumin diluted to contain 3.65 mg of antibody at 3 sites along the midline back. Anesthesia was terminated and after three hours the animals were sacrificed. The skin was removed and the blue stained areas cut out. […] The tube contents were agitated and centrifuged, and the absorbance of the supernatant liquid was measured at 620 nm. The data were calculated as inhibition of blueing by test compound compared to control animals receiving only antigen and antibody.

| Compound | % Inhibition Intraperitoneal [1] | % Inhibition Intraperitoneal ([2]; i.p., 100 mg/kg, 30 min before irritant) | % Inhibition, topical ([2]; topical, 10 μg upper + 10 μg lower ear surface, 15 min before irritant) | % Inhibition Intraperitoneal [3] | % Inhibition Intraperitoneal ([4]; i.p., 100 mg/kg, 30 min before irritant, ear thickness at thirty minutes) | % Inhibition Intraperitoneal ([5]; i.p., 100 mg/kg, 30 min before irritant, ear thickness at 3 h) | % Inhibition, topical ([5]; topical, 100 μg upper + 100 μg lower ear surface, 15 min before irritant, 3 h) | % Inhibition, topical [6] | % Inhibition Intraperitoneal [7] | % Inhibition Intraperitoneal ([2]; Reference Standard, 100 μg/ear) | % Inhibition Intraperitoneal ([4]; Reference Standard, 100 μg/ear, thirty minutes) |
| --- | --- | --- | --- | --- | --- | --- | --- | --- | --- | --- | --- |
| CC(C)C[C@H](NC(=O)OCC1c2ccccc2-c2ccccc21)C(=O)O [L-Leucine, N-[(9H-Fluoren-9-ylmethoxy)carbonyl]-L-leucine] | 62% | 47% | 66% | 58% | 74% | 54% | 41% | 41% | 48% |  |  |
| D-Pro^2 -D-Trp^7.9 -Substance P [reference compound] |  |  |  |  |  |  |  |  |  | 44% | 34% |
